The results in this text go back to patent US9675543B2, “Method of improving aging appearance of skin by modulation of WIPI-1” (Avon Products, Inc., priority 2012, dated 2017).

For this experiment, the system named is WIPI-1. Description: WIPI-1 Screening, mRNA up-regulation in normal human keratinocytes (HEKa), Quantigene multiplex assay. The format is cell-based. The conditions noted are these: for HEKa Activity Level (percent up-regulation of WIPI-1 mRNA, scaled score): HEKa keratinocytes, 24 hours, vs vehicle control. On the procedure: A variety of botanical extract and synthetic compounds were tested for the ability to up-regulate WIPI-1. Normal human dermal fibroblasts or keratinocytes were cultured in 96-well tissue culture treated plates, containing appropriate culture medium. Stock solutions of actives were made in an appropriate vehicle (water/Ethanol/DMSO). Cells were treated with test material or respective vehicle control diluted in growth medium for 24 hours in a humidified 37° C. incubator with 10% CO2. The concentrations of each extract are provided based on the dry weight of the given plant extract, by which is meant the weight of the extract after volatile extraction solvents have been removed. After incubation, growth medium from each plate was removed and 100 μL of lysis buffer was added to the wells and placed in 37° C. incubator with 10% CO2 for 30 minutes. At the end of incubation, the cells were collected in freezer plates and placed in −80° C. freezer, until analysis. Changes in mRNA after treatment were analysed using Panomics Quantigene multiplex assay that employs a branched DNA technology, following manufacturer's instructions (Affymetrix, CA). Percent increase (up-regulation) in mRNA for the WIPI-1 were calculated by comparing the test results to the control. The percent up-regulation is converted to a scaled score: 0: 0-20%; +: 21-40%; ++: 41-60%; +++: 61-80%; ++++: >80%.

As for `CCOCCCNC(=O)c1coc(CN(CCCOCC)C(=O)c2ccc(Cl)cc2)n1` [Analog 1], the “HEKa Activity Level (percent up-regulation of WIPI-1 mRNA, scaled score)” value is “+ (+: 21-40%)” (concentration 0.001%) and “+ (+: 21-40%)” (concentration 0.01%). In addition, the “WIPI-1 within keratinocytes upregulated (in words)” value (keratinocytes) is “upregulated”.
